Measurements taken from patent US20260130885A1, “ANTIMICROBIAL COMPOSITIONS, PHARMACEUTICAL COMPOSITIONS AND USE THEREOF” (priority 2022, published 2026).
Read-outs that look alike come from different tables or passages of the source.

Tested on: MRSA USA300
Assay: Antibacterial activity assay (MIC by broth microdilution, MBC by subculture)
Assay type: cell-based, Staphylococcus aureus
Details: for synergy of the fatty acid with SC5005 (in words): summary of Tables 1 and 2
Experimental: The antimicrobial activity was based on MIC and MBC; MIC is the minimum inhibitory concentration and MBC is the minimum bactericidal concentration. The MIC of individual test agents against MRSA USA300 strains was determined using the broth microdilution method according to CLSI guidelines. Briefly, overnight bacterial cultures in LB medium were diluted 1:50 in fresh LB medium and incubated at 37° C. until reaching an OD600 of 0.5 to 0.6. Bacterial suspensions were diluted to a final concentration of 5×10^5 cfu/mL in fresh CAMHB and then exposed to each test agent at increasing doses in triplicate in 96-well plates for 24 hours at 37° C. The MIC of each agent was defined as the lowest concentration without visible bacterial growth. […] The lowest broth dilution that had no viable bacteria was considered the MBC.
Then, the combination effect was measured by calculating their corresponding fractional inhibitory concentration index (FICI) with the equation ΣFIC (FICi)=FICA+FICB=(CombA/MICA)+(CombB/MICB), where MICA and MICB are the MICs of drugs A and B alone, respectively, and CombA and CombB are the concentrations of drugs A and B in combination, respectively. […] was defined as an FICI≤0.5, no interaction was defined as an FICI>0.5-4.0, and antagonism was defined as an FICI>4.

[1] = Staphylococcus aureus, amide compound alone, read-out: MBC
[2] = Staphylococcus aureus, amide compound alone, read-out: MIC
[3] = Staphylococcus aureus, fatty acid alone, read-out: MBC fatty acid
[4] = Staphylococcus aureus, fatty acid alone, read-out: MIC fatty acid

O=C(Nc1ccc(Cl)c(C(F)(F)F)c1)C(F)(CCCl)C(=O)Nc1ccc(Cl)c(C(F)(F)F)c1 [SC5105]
MBC (+8 mg/L DHA): 0.125 µg/mL
MIC (+8 mg/L DHA): 0.125 µg/mL
MBC [1]: > 64 µg/mL
MIC [2]: > 64 µg/mL

O=C(NC1CCCCC1)C(CCCl)C(=O)NC1CCCCC1 [SC5048]
MBC (+8 mg/L DHA): >64 µg/mL
MIC (+8 mg/L DHA): >64 µg/mL
MBC [1]: > 64 µg/mL
MIC [2]: > 64 µg/mL

O=C(Nc1cccc(Cl)c1)C(CCCl)C(=O)Nc1cccc(Cl)c1 [SC5027]
MBC (+8 mg/L DHA): >64 µg/mL
MIC (+8 mg/L DHA): 64 µg/mL
MBC [1]: > 64 µg/mL
MIC [2]: > 64 µg/mL

C=CCNC(=O)C(CCCl)C(=O)NCC=C [SC5052]
MBC (+8 mg/L DHA): 2 µg/mL
MIC (+8 mg/L DHA): 1 µg/mL
MBC [1]: > 64 µg/mL
MIC [2]: > 64 µg/mL

O=C(Nc1ccc(Cl)c(C(F)(F)F)c1)C(CCCl)C(=O)NC1CCCCC1 (centres unmarked) [SC5053]
MBC (+8 mg/L DHA): 2 µg/mL
MIC (+8 mg/L DHA): 1 µg/mL
MBC [1]: > 64 µg/mL
MIC [2]: > 64 µg/mL

CCCCCC/C=C\CCCCCCCC(=O)O [palmitoleic acid]
MBC [3]: 512 µg/mL
MIC [4]: 64 µg/mL
synergy of the fatty acid with SC5005 (in words): exhibited synergy

O=C(Nc1ccc(Cl)c(C(F)(F)F)c1)Nc1ccc(Cl)c(C(F)(F)F)c1 [SC5178]
MBC (+8 mg/L DHA): 0.00156 µg/mL
MIC (+8 mg/L DHA): 0.00012 µg/mL
MBC [1]: 2 µg/mL
MIC [2]: 0.25 µg/mL

CCCCCCCCCCCCCC(=O)O [myristic acid]
MBC [3]: > 1020 µg/mL
MIC [4]: 512 µg/mL
synergy of the fatty acid with SC5005 (in words): neither of nervonic acid (C24:1n9c) and myristic acid (C14:1n5c), which have 24 and 14 carbon atoms respectively, showed any synergistic activity with SC5005

CC/C=C\C/C=C\C/C=C\CCCCCCCC(=O)O [α- linolenic acid, α-linolenic acid]
MBC [3]: 1020 µg/mL
MIC [4]: 256 µg/mL

O=C(Nc1ccc(Cl)c(C(F)(F)F)c1)C1(C(=O)Nc2ccc(Cl)c(C(F)(F)F)c2)CC1 [SC5020]
MBC (+8 mg/L DHA): 0.125 µg/mL
MIC (+8 mg/L DHA): 0.125 µg/mL
MBC [1]: > 64 µg/mL
MIC [2]: > 64 µg/mL

CN(C(=O)C(CCCl)C(=O)N(C)c1cc(Cl)cc(Cl)c1)c1cc(Cl)cc(Cl)c1 [SC5102]
MBC (+8 mg/L DHA): >64 µg/mL
MIC (+8 mg/L DHA): >64 µg/mL
MBC [1]: > 64 µg/mL
MIC [2]: > 64 µg/mL

O=C(Nc1cc(Cl)cc(Cl)c1)C(CCCl)C(=O)Nc1ccc(Cl)c(C(F)(F)F)c1 (centres unmarked) [SC5035]
MBC (+8 mg/L DHA): 2 µg/mL
MIC (+8 mg/L DHA): 1 µg/mL
MBC [1]: 32 µg/mL
MIC [2]: 16 µg/mL

O=C(Nc1ccc(Cl)c(C(F)(F)F)c1)C(CCCCl)C(=O)Nc1ccc(Cl)c(C(F)(F)F)c1 [SC5103]
MBC (+8 mg/L DHA): 0.0078 µg/mL
MIC (+8 mg/L DHA): 0.0039 µg/mL
MBC [1]: 2 µg/mL
MIC [2]: 0.25 µg/mL

CCCCCCCCCCCCCCCCCC(=O)O [stearic acid]
MBC [3]: > 1020 µg/mL
MIC [4]: 512 µg/mL
synergy of the fatty acid with SC5005 (in words): failed to exhibit synergy

O=C(CC(=O)Nc1ccc(Cl)c(C(F)(F)F)c1)Nc1ccc(Cl)c(C(F)(F)F)c1 [SC5106]
MBC (+8 mg/L DHA): 0.5 µg/mL
MIC (+8 mg/L DHA): 0.25 µg/mL
MBC [1]: > 64 µg/mL
MIC [2]: > 64 µg/mL

O=C(Nc1cc(Cl)cc(Cl)c1)C(CCCl)C(=O)Nc1ccc([N+](=O)[O-])c(C(F)(F)F)c1 (centres unmarked) [SC5041]
MBC (+8 mg/L DHA): 0.0625 µg/mL
MIC (+8 mg/L DHA): 0.0625 µg/mL
MBC [1]: 2 µg/mL
MIC [2]: 0.5 µg/mL

O=C(Nc1ccc2c(c1)OCO2)Nc1ccc(Cl)c(C(F)(F)F)c1 [1-159, reference compound]
MIC (+8 mg/L DHA): 0.125 µg/mL
MBC [1]: 64 µg/mL
MIC [2]: 32 µg/mL

O=C(Nc1cc(Cl)cc(Cl)c1)C(F)(CCCl)C(=O)Nc1cc(Cl)cc(Cl)c1 [SC5104]
MBC (+8 mg/L DHA): 0.0078 µg/mL
MIC (+8 mg/L DHA): 0.0078 µg/mL
MBC [1]: 4 µg/mL
MIC [2]: 0.5 µg/mL

O=C(Nc1ccc(OC(F)(F)F)cc1)C(CCCl)C(=O)Nc1ccc(OC(F)(F)F)cc1 [SC5024]
MBC (+8 mg/L DHA): 8 µg/mL
MIC (+8 mg/L DHA): 8 µg/mL
MBC [1]: > 64 µg/mL
MIC [2]: > 64 µg/mL

C=CCNC(=O)C(CCCl)C(=O)Nc1ccc(Cl)c(C(F)(F)F)c1 (centres unmarked) [SC5050]
MBC (+8 mg/L DHA): 16 µg/mL
MIC (+8 mg/L DHA): 8 µg/mL
MBC [1]: > 64 µg/mL
MIC [2]: > 64 µg/mL

O=C(Nc1ccc(Cl)c(C(F)(F)F)c1)C1(C(=O)Nc2ccc(Cl)c(C(F)(F)F)c2)CC1 [SC5107]
MBC (+8 mg/L DHA): 0.125 µg/mL
MIC (+8 mg/L DHA): 0.0625 µg/mL
MBC (amide compound alone): >64 µg/mL
MIC (amide compound alone): >64 µg/mL

C=CCC(C(=O)Nc1ccc(Cl)c(C(F)(F)F)c1)C(=O)Nc1ccc(Cl)c(C(F)(F)F)c1 [SC5037]
MBC (+8 mg/L DHA): 0.0078 µg/mL
MIC (+8 mg/L DHA): 0.0039 µg/mL
MBC [1]: 2 µg/mL
MIC [2]: 1 µg/mL

O=C(Nc1ccccc1)C(CCCl)C(=O)Nc1ccccc1 [SC5022]
MBC (+8 mg/L DHA): >64 µg/mL
MIC (+8 mg/L DHA): >64 µg/mL
MBC [1]: > 64 µg/mL
MIC [2]: > 64 µg/mL
